Results from paper PMC2585998 (Molecular cell, 2008).

Target: SpoIVA (IVA; His6-SpoIVA) (Bacillus subtilis, UniProt P35149, K30A)
Experiment: ATPase, ADP production by TLC of alpha-32P-ATP
Assay type: biochemical
Details: Walker A mutant, diminished hydrolysis; 10 mM MgCl2, pH 7.5, 37 C

Sequence of SpoIVA (IVA; His6-SpoIVA) (P35149 whole entry K30A): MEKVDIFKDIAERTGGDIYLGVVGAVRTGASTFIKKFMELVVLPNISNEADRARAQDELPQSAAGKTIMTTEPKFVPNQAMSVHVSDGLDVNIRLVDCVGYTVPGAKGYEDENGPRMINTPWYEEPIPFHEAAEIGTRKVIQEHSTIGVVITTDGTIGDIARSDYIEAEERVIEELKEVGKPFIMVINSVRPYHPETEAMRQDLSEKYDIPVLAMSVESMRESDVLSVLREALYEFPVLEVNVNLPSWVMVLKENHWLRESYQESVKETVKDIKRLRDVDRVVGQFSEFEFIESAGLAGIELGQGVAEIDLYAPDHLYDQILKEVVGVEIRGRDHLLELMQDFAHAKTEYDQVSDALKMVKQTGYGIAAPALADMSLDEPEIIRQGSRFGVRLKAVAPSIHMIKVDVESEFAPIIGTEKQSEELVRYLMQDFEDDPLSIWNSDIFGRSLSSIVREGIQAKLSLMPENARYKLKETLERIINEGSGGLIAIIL

Nc1ncnc2c1ncn2[C@@H]1O[C@H](COP(=O)(O)OP(=O)(O)OP(=O)(O)O)[C@@H](O)[C@H]1O [ATP]
ATPase, ADP production by TLC of alpha-32P-ATP: Incubation of ATP with IVA^K30A, in contrast, led to the diminished accumulation of ADP
